Results taken from patent US20250042895A1, “INHIBITORS OF ULK1 AND METHODS OF USE” (H. LEE MOFFITT CANCER CENTER AND RESEARCH INSTITUTE, INC., priority 2021, published 2025).
Blank lines part the entries; values can stand above or below the compound they belong to.

Tests used:
ULK1-nanoluc = target: T1, ULK1-nanoluc (Homo sapiens, UniProt O75385); experiment: NanoBRET target engagement in live cells; type: cell-based; conditions: H2030 cells transfected with ULK1-nanoluc, Tracer K10, 2 hr
T1 construct: host or cells: H2030 cells (ATCC)
T1 sequence (O75385 1-1050): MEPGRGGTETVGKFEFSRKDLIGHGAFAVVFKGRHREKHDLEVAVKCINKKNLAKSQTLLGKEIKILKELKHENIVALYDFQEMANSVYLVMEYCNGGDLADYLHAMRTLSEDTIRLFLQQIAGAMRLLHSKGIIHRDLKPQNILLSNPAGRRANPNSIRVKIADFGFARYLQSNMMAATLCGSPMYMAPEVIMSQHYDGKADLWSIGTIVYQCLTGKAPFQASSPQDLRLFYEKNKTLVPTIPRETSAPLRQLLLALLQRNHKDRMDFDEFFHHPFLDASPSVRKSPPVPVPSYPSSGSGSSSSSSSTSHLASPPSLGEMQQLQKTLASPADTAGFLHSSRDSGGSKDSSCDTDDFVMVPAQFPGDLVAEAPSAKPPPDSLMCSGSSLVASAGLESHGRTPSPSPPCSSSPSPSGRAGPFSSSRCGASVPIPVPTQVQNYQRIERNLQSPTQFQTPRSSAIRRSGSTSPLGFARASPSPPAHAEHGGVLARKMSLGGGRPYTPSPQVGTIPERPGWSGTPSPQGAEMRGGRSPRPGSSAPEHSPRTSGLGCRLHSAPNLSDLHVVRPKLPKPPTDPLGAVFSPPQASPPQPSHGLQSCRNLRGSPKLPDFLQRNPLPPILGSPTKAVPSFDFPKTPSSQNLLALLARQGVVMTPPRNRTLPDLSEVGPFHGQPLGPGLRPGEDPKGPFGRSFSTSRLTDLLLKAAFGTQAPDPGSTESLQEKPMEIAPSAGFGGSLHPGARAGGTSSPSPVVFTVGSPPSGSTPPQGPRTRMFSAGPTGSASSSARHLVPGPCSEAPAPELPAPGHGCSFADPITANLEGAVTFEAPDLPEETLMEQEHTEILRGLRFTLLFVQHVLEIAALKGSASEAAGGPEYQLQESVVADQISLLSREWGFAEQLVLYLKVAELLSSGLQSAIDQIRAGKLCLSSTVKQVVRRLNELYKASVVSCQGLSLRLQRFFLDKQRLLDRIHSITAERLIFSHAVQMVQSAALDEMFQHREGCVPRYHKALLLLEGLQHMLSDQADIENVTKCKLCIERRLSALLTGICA

GST-ULK1 = target: T2, GST-ULK1 (Homo sapiens, UniProt O75385); experiment: LanthaScreen ULK1 inhibitor assay; type: biochemical; conditions: 5 nM GST-ULK1, 30 nM tracer, 20 μM ATP, 1 hr room temperature
T2 sequence (O75385 1-1050): T1 sequence (O75385 1-1050)

ULK1 kinase domain = target: T3, ULK1 kinase domain (Homo sapiens, UniProt O75385); experiment: Differential scanning fluorimetry (thermal shift); type: binding; conditions: 2 μM ULK1 kinase domain, 50 μM compound, vs DMSO reference
T3 construct: The protein expression construct of ULK1 kinase domain (1-283) was cloned; 6His-Sumo (N, cleaved yes); made in house; host or cells: E. coli BL21 star, co-expressed with lambda phosphatase
T3 sequence (O75385 1-283): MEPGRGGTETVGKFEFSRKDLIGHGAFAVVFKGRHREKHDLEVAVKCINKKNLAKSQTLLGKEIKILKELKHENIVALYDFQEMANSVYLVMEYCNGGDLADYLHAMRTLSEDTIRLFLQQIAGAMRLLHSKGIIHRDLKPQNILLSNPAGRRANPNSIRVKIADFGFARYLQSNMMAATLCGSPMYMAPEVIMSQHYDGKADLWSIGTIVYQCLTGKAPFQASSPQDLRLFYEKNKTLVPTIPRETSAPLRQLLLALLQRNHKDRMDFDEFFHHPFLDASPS

ULK1 kinase = target: T4, ULK1 kinase (Homo sapiens, UniProt O75385); experiment: Radiometric HotSpot kinase assay (Reaction Biology); type: biochemical; conditions: activity-based ULK1 kinase assay
T4 construct: purchased Reaction Biology
T4 sequence (O75385 1-1050): T1 sequence (O75385 1-1050)

Structure (SMILES): O=C(NCC(F)(F)F)c1cc(-c2cnc3[nH]c(-c4ccc(OCCN5CCCCC5)cc4)cc3c2)cs1 [Compound 38, 4-(2-(4-(2-(Piperidin-1-yl)ethoxy)phenyl)-1H-pyrrolo[2,3-b]pyridin-5-yl)-N-(2,2,2-trifluoroethyl)thiophene-2-carboxamide]
- EC50 (ULK1-nanoluc): 22 nM
- IC50 (GST-ULK1): 14 nM
- ΔTm at 50 µM (ULK1 kinase domain): 12.8 °C
- IC50 (ULK1 kinase): 15 nM

Structure (SMILES): O=C(NC[C@H](O)CO)c1cccc(-c2cnc3[nH]c(-c4ccc(F)cc4)cc3c2)n1 [Compound 58, (S)—N-(2,3-Dihydroxypropyl)-6-(2-(4-fluorophenyl)-1H-pyrrolo[2,3-b]pyridin-5-yl)-picolinamide]
- EC50 (ULK1-nanoluc): 2370 nM
- IC50 (GST-ULK1): 67 nM
- ΔTm at 50 µM (ULK1 kinase domain): 9.22 °C
- IC50 (ULK1 kinase): 22 nM

Structure (SMILES): CC[C@@H](CO)NC(=O)c1cccc(-c2cnc3[nH]c(-c4ccc(F)cc4)cc3c2)n1 [Compound 59, (S)-6-(2-(4-Fluorophenyl)-1H-pyrrolo[2,3-b]pyridin-5-yl)-N-(1-hydroxybutan-2-yl)-picolinamide]
- EC50 (ULK1-nanoluc): 149 nM
- IC50 (GST-ULK1): 10 nM
- ΔTm at 50 µM (ULK1 kinase domain): 11 °C
- IC50 (ULK1 kinase): 7 nM

Structure (SMILES): CC[C@@H](CO)NC(=O)c1nc(-c2cnc3[nH]c(-c4ccc(F)cc4)cc3c2)cs1 [Compound 61, (S)-4-(2-(4-Fluorophenyl)-1H-pyrrolo[2,3-b]pyridin-5-yl)-N-(1-hydroxybutan-2-yl)-thiazole-2-carboxamide]
- EC50 (ULK1-nanoluc): 131 nM
- IC50 (GST-ULK1): 7 nM
- ΔTm at 50 µM (ULK1 kinase domain): 9.31 °C
- IC50 (ULK1 kinase): 8 nM

Structure (SMILES): O=C(NCC(O)C(F)(F)F)c1nc(-c2cnc3[nH]c(-c4ccc(F)cc4)cc3c2)cs1 (centres unmarked) [Compound 65, 4-(2-(4-Fluorophenyl)-1H-pyrrolo[2,3-b]pyridin-5-yl)-N-(3,3,3-trifluoro-2-hydroxy-propyl)thiazole-2-carboxamide]
- EC50 (ULK1-nanoluc): 122 nM
- IC50 (GST-ULK1): 17 nM
- ΔTm at 50 µM (ULK1 kinase domain): 7.12 °C
- IC50 (ULK1 kinase): 29 nM

Structure (SMILES): O=C(NCC1(O)CCC1)c1nc(-c2cnc3[nH]c(-c4ccc(F)cc4)cc3c2)cs1 [Compound 70, 4-(2-(4-fluorophenyl)-1H-pyrrolo[2,3-b]pyridin-5-yl)-N-((1-hydroxycyclobutyl)methyl)thiazole-2-carboxamide]
- EC50 (ULK1-nanoluc): 129 nM
- IC50 (GST-ULK1): 8 nM
- ΔTm at 50 µM (ULK1 kinase domain): 8.04 °C
- IC50 (ULK1 kinase): 22 nM

Structure (SMILES): O=C(NCC1CC1)c1nc(-c2cnc3[nH]c(-c4ccc(F)cc4)cc3c2)cs1 [Compound 71, N-(cyclopropylmethyl)-4-(2-(4-fluorophenyl)-1H-pyrrolo[2,3-b]-pyridin-5-yl)thiazole-2-carboxamide]
- EC50 (ULK1-nanoluc): 414 nM
- IC50 (GST-ULK1): 39 nM
- ΔTm at 50 µM (ULK1 kinase domain): 3.73 °C
- IC50 (ULK1 kinase): 14 nM

Structure (SMILES): O=C(NCC1(O)CC1)c1nc(-c2cnc3[nH]c(-c4ccc(F)cc4)cc3c2)cs1 [Compound 73, 4-(2-(4-fluorophenyl)-1H-pyrrolo-[2,3-b]pyridin-5-yl)-N-((1-hydroxy-cyclopropyl)methyl)thiazole-2-carboxamide]
- EC50 (ULK1-nanoluc): 195 nM
- IC50 (GST-ULK1): 3 nM
- ΔTm at 50 µM (ULK1 kinase domain): 7.72 °C
- IC50 (ULK1 kinase): 10 nM

Structure (SMILES): C[C@@H](CO)NC(=O)c1nc(-c2cnc3[nH]c(-c4ccc(F)cc4)cc3c2)cs1 [Compound 76, (S)-4-(2-(4-fluorophenyl)-1H-pyrrolo[2,3-b]pyridin-5-yl)-N-(1-hydroxypropan-2-yl)thiazole-2-carboxamide]
- EC50 (ULK1-nanoluc): 541 nM
- IC50 (GST-ULK1): 25 nM
- ΔTm at 50 µM (ULK1 kinase domain): 7.56 °C
- IC50 (ULK1 kinase): 44 nM

Structure (SMILES): O=C(NCCF)c1nc(-c2cnc3[nH]c(-c4ccc(F)cc4)cc3c2)cs1 [Compound 78, N-(2-fluoroethyl)-4-(2-(4-fluoro-phenyl)-1H-pyrrolo[2,3-b]pyridin-5-yl)thiazole-2-carboxamide]
- EC50 (ULK1-nanoluc): 282 nM
- IC50 (GST-ULK1): 27 nM
- ΔTm at 50 µM (ULK1 kinase domain): 4.83 °C
- IC50 (ULK1 kinase): 20 nM

Structure (SMILES): O=C(NCC(F)F)c1nc(-c2cnc3[nH]c(-c4ccc(F)cc4)cc3c2)cs1 [Compound 79, N-(2,2-difluoroethyl)-4-(2-(4-fluorophenyl)-1H-pyrrolo[2,3-b]-pyridin-5-yl)thiazole-2-carboxamide]
- EC50 (ULK1-nanoluc): 156 nM
- IC50 (GST-ULK1): 16 nM
- ΔTm at 50 µM (ULK1 kinase domain): 5.45 °C
- IC50 (ULK1 kinase): 12 nM

Structure (SMILES): FC(F)(F)c1cnc2[nH]c(C3=CCOCC3)cc2c1NCCN1CCNCC1 [Compound 87, 2-(3,6-dihydro-2H-pyran-4-yl)-N-(2-(piperazin-1-yl)ethyl)-5-(trifluoromethyl)-1H-pyrrolo[2,3-b]pyridin-4-amine]
- EC50 (ULK1-nanoluc): 76 nM
- IC50 (GST-ULK1): 16 nM
- ΔTm at 50 µM (ULK1 kinase domain): 12.5 °C
- IC50 (ULK1 kinase): 10 nM

Structure (SMILES): FC(F)(F)c1cnc2[nH]c(C3=CCOCC3)cc2c1NCCN1CCOCC1 [Compound 89, 2-(3,6-dihydro-2H-pyran-4-yl)-N-(2-morpholinoethyl)-5-(trifluoromethyl)-1H-pyrrolo[2,3-b]pyridin-4-amine]
- EC50 (ULK1-nanoluc): 1160 nM
- IC50 (GST-ULK1): 92 nM
- ΔTm at 50 µM (ULK1 kinase domain): 8.13 °C
- IC50 (ULK1 kinase): 37 nM

Structure (SMILES): CN1CC=C(c2cc3c(NC4CCNC4)c(C(F)(F)F)cnc3[nH]2)CC1 (centres unmarked) [Compound 98, 2-(1-methyl-1,2,3,6-tetrahydropyridin-4-yl)-N-(pyrrolidin-3-yl)-5-(trifluoromethyl)-1H-pyrrolo[2,3-b]pyridin-4-amine]
- EC50 (ULK1-nanoluc): 184 nM
- IC50 (GST-ULK1): 57 nM
- ΔTm at 50 µM (ULK1 kinase domain): 10.3 °C
- IC50 (ULK1 kinase): 144 nM

Structure (SMILES): CN1CC=C(c2cc3c(NCCN4CCNCC4)c(C(F)(F)F)cnc3[nH]2)CC1 [Compound 101, 2-(1-methyl-1,2,3,6-tetrahydropyridin-4-yl)-N-(2-(piperazin-1-yl)ethyl)-5-(trifluoromethyl)-1H-pyrrolo[2,3-b]pyridin-4-amine]
- EC50 (ULK1-nanoluc): 157 nM
- IC50 (GST-ULK1): 50 nM
- ΔTm at 50 µM (ULK1 kinase domain): 11 °C
- IC50 (ULK1 kinase): 131 nM

- EC50 (ULK1-nanoluc): 1400 nM
- IC50 (GST-ULK1): 36 nM
Structure (SMILES): C[C@H](CO)NC(=O)c1cc(-c2cnc3[nH]c(C4=CCCNC4)cc3c2)cs1 [Compound 103]

- EC50 (ULK1-nanoluc): 4290 nM
- IC50 (GST-ULK1): 29 nM
Structure (SMILES): C[C@@H](CO)NC(=O)c1cc(-c2cnc3[nH]c(C4=CCNC4)cc3c2)cs1 [Compound 104]

- EC50 (ULK1-nanoluc): ≥ 10000 nM
- IC50 (GST-ULK1): 139 nM
Structure (SMILES): C[C@H](CO)NC(=O)c1cc(-c2cnc3[nH]c(C4=CCNC4)cc3c2)cs1 [Compound 105]

- EC50 (ULK1-nanoluc): 1130 nM
- IC50 (GST-ULK1): 16 nM
Structure (SMILES): C[C@@H](CO)NC(=O)c1cc(-c2cnc3[nH]c(C4=CCNCC4)cc3c2)cs1 [Compound 106]

- EC50 (ULK1-nanoluc): 391 nM
- IC50 (GST-ULK1): 19 nM
Structure (SMILES): C[C@@H](CO)NC(=O)c1cc(-c2cnc3[nH]c(C4=CCN(C)CC4)cc3c2)cs1 [Compound 107]

- EC50 (ULK1-nanoluc): 219 nM
- IC50 (GST-ULK1): 26 nM
Structure (SMILES): O=C(NCC1(O)CC1)c1cc(-c2cnc3[nH]c(C4=CNCCC4)cc3c2)cs1 [Compound 108]

- EC50 (ULK1-nanoluc): 86 nM
- IC50 (GST-ULK1): 1 nM
Structure (SMILES): FC1(F)CN(c2c(C(F)(F)F)cnc3[nH]c(C4=CCNC4)cc23)C1 [Compound 140]
